Laboratory results from US8829007B2 (priority 2009, dated 2014).
pEC50, pIC50: −log10 of the molar value. Read-outs that look alike come from different tables or passages of the source.

Columns and labels:
[1] = tested on: influenza A virus (A/PR/8/34); assay: microbe, parasite or virus in culture; type: cell-based; conditions: for IC50: MDCK cells, A/PR/8/34, ATP readout, read-out: Cell Flu, MDCK protection, ATP (All: IC50: uM)(Mean (All))
[2] = tested on: A/PR/8/34 influenza virus; assay: microbe, parasite or virus in culture; type: cell-based; conditions: for EC50: HA(−) 30 hr, A/PR/8, bDNA, read-out: Cell Influenza HA(−) 30 hr A/PR/8 bDNA:bDNA EC50 uM(Mean (All))
[3] = Influenza A virus, PR/8, MDCK, mean all, A/PR/8/34 infected MDCK cells, cell protection (CPE), read-out: IC50
[4] = Influenza A virus, PR/8, mean all, A/PR/8/34 influenza virus replication, bDNA, read-out: EC50
[5] = mean all, A/PR/8/34 influenza virus replication, bDNA, read-out: EC50
[6] = Influenza A virus, PR/8, MDCK, mean all, survival of A/PR/8/34 infected MDCK cells (CPE assay), read-out: IC50
[7] = Influenza A virus, PR/8, mean all, replication of A/PR/8/34 influenza virus (bDNA assay), read-out: EC50
[8] = Influenza A virus, PR/8, MDCK, mean all
[9] = Influenza A virus, PR/8, 30 h, mean all

CCNC(=O)[C@]1(O)CCC[C@H](Nc2nc(-c3c[nH]c4ncc(Cl)cc34)ncc2F)C1 [Compound 779, (1S,3S)-3-[[2-(5-chloro-1H-pyrrolo[2,3-b]pyridin-3-yl)-5-fluoro-pyrimidin-4-yl]amino]-N-ethyl-1-hydroxy-cyclohexanecarboxamide]
pIC50 [1, 3]: > 5.30
pEC50 [2, 4]: > 5.30

COCCNC(=O)[C@@H]1CCC[C@H](Nc2nc(-c3c[nH]c4ncc(Cl)cc34)ncc2F)C1 [Compound 789]
pIC50 ([1]; read-out: IC50): > 5.30
pEC50 [2, 5]: > 5.30

O=c1[nH]c(=O)n([C@@H]2CCC[C@H](Nc3nc(-c4c[nH]c5ncc(Cl)cc45)ncc3F)C2)o1 [Compound 796]
pIC50 ([1]; read-out: IC50): > 5.30
pEC50 [2, 5]: > 5.30

O=c1[nH]c(=O)n([C@H]2CCC[C@H](Nc3nc(-c4c[nH]c5ncc(Cl)cc45)ncc3F)C2)o1 [Compound 798]
pIC50 ([1]; read-out: IC50): > 5.30
pEC50 [2, 5]: > 5.30

CCNC(=O)C1CCCC(Nc2nc(-c3c[nH]c4ncc(Cl)cc34)ncc2F)C1O (centres unmarked) [Compound 815, 3-[[2-(5-chloro-1H-pyrrolo[2,3-b]pyridin-3-yl)-5-fluoro-pyrimidin-4-yl]amino]-N-ethyl-2-hydroxy-cyclohexanecarboxamide]
pIC50 [1, 3]: > 5.30
pEC50 [2, 4]: > 5.30

C[C@@]1(C(=O)O)CCCC(Nc2nc(-c3c[nH]c4ncc(Cl)cc34)ncc2F)C1 (some centres unmarked) [Compound 826]
pIC50 [1, 3]: > 5.30
pEC50 [2, 4]: > 5.30

CO[C@@H]1CCC[C@H](Nc2nc(-c3c[nH]c4ncc(Cl)cc34)ncc2F)[C@H]1O [Compound 831, (1R,2S,6R)-2-(2-(5-chloro-1H-pyrrolo[2,3-b]pyridin-3-yl)-5-fluoropyrimidin-4-ylamino)-6-methoxycyclohexanol]
pIC50 [1, 3]: > 5.30
pEC50 [2, 4]: > 5.30

Fc1cnc(-c2c[nH]c3ncc(Cl)cc23)nc1N[C@H]1CCC[C@@H](c2nnn[nH]2)C1 [Compound 855, N-((1S,3R)-3-(1H-tetrazol-5-yl)cyclohexyl)-2-(5-chloro-1H-pyrrolo[2,3-b]pyridin-3-yl)-5-fluoropyrimidin-4-amine]
pIC50 [1, 3]: > 5.30
pEC50 [2, 4]: > 5.30

CC(=O)NC[C@]1(O)CCC[C@H](Nc2nc(-c3c[nH]c4ncc(Cl)cc34)ncc2F)C1 [Compound 857]
pIC50 [1, 3]: > 5.30
pEC50 [2, 4]: > 5.30

C[C@@]1(O)CCC[C@H](Nc2nc(-c3c[nH]c4ncc(Cl)cc34)ncc2F)[C@H]1O [Compound 860]
pIC50 ([1]; read-out: IC50): > 5.30
pEC50 [2, 5]: > 5.30

N#CC1(C(=O)N[C@@H]2CCC[C@H](Nc3nc(-c4c[nH]c5ncc(F)cc45)ncc3F)C2)CC1 [Compound 871]
pIC50 [1, 3]: > 5.30
pEC50 [2, 4]: > 5.30

N=C(N)N1CCC[C@H](Nc2nc(-c3c[nH]c4ncc(Cl)cc34)ncc2F)C1 [Compound 881]
pIC50 [1, 3]: < 5.00
pEC50 [2, 4]: < 5.48

CS(=O)(=O)C[C@@]1(O)CCC[C@H](Nc2nc(-c3c[nH]c4ncc(Cl)cc34)ncc2F)C1 [Compound 886]
pIC50 ([1]; read-out: IC50): > 5.30
pEC50 ([2]; mean all, replication of A/PR/8/34 influenza virus (bDNA assay), read-out: EC50): > 5.30

O=C1CCCN1[C@@H]1CCC[C@H](Nc2nc(-c3c[nH]c4ncc(Cl)cc34)ncc2F)C1 [Compound 956]
pIC50 [1, 6]: > 5.30
pEC50 [2, 7]: > 5.30

CN1CCN([C@@H]2CCCC(Nc3nc(-c4c[nH]c5ncc(Cl)cc45)ncc3F)C2)C1=O (some centres unmarked) [Compound 958]
pIC50 [1, 6]: > 5.30
pEC50 [2, 7]: > 5.30

O=C1CC2(CCC[C@H](Nc3nc(-c4c[nH]c5ncc(Cl)cc45)ncc3F)C2)CN1 (stereo partly drawn) [Compound 969, (7S)-7-(2-(5-chloro-1H-pyrrolo[2,3-b]pyridin-3-yl)-5-fluoropyrimidin-4-ylamino)-2-azaspiro[4.5]decan-3-one]
pIC50 [1, 6]: > 5.30
pEC50 [2, 7]: > 5.30

CN1C[C@@]2(CCC[C@H](Nc3nc(-c4c[nH]c5ncc(Cl)cc45)ncc3F)C2)OC1=O [Compound 971, (5S,7S)-7-(2-(5-chloro-1H-pyrrolo[2,3-b]pyridin-3-yl)-5-fluoropyrimidin-4-ylamino)-3-methyl-1-oxa-3-azaspiro[4.5]decan-2-one]
pIC50 [1, 6]: > 5.30
pEC50 [2, 7]: > 5.30

N#CC[C@]1(O)CCC[C@H](Nc2nc(-c3c[nH]c4ncc(F)cc34)ncc2F)C1 [Compound 979, 2-((1S,3S)-3-(5-fluoro-2-(5-fluoro-1H-pyrrolo[2,3-b]pyridin-3-yl)pyrimidin-4-ylamino)-1-hydroxycyclohexyl)ethanenitrile]
IC50 [1, 8]: < 5 µM
EC50 [2, 9]: < 5 µM

O[C@H]1[C@H](O)CCCC[C@@H]1Nc1nc(-c2c[nH]c3ncc(F)cc23)ncc1F [Compound 984]
IC50 [1, 8]: < 5 µM
EC50 [2, 9]: < 5 µM

O=C(O)[C@H]1C2CCC(CC2)[C@@H]1Nc1nc(-c2c[nH]c3ncc(F)cc23)ncc1F [Compound 1070, (2S,3S)-3-((2-(5-fluoro-1H-pyrrolo[2,3-b]pyridin-3-yl)-5-fluoropyrimidin-4-yl)amino)bicyclo[2.2.2]octane-2-carboxylic acid]
IC50 [1, 8]: < 5 µM
EC50 [2, 9]: < 5 µM

COc1c(F)cnc2[nH]cc(-c3ncc(F)c(N[C@H]4CCC[C@@H](NC(=O)N5CC[C@@H](F)C5)C4)n3)c12 [Compound 1104, (R)-3-fluoro-N-((1R,3S)-3-((5-fluoro-2-(5-fluoro-4-methoxy-1H-pyrrolo[2,3-b]pyridin-3-yl)pyrimidin-4-yl)amino)cyclohexyl)pyrrolidine-1-carboxamide]
IC50 [1, 8]: < 5 µM
EC50 [2, 9]: < 5 µM

N=C(N)N[C@@H]1CCC[C@H](Nc2nc(-c3c[nH]c4ncc(F)cc34)ncc2F)C1 [Compound 1143, 1-((1R,3S)-3-(5-fluoro-2-(5-fluoro-1H-pyrrolo[2,3-b]pyridin-3-yl)pyrimidin-4-ylamino)cyclohexyl)guanidine]
IC50 [1, 8]: < 5 µM
EC50 [2, 9]: < 5 µM

O=C(O)c1coc(N[C@@H]2CCC[C@H](Nc3nc(-c4c[nH]c5ncc(F)cc45)ncc3F)C2)n1 [Compound 1144, 2-((1R,3S)-3-(5-fluoro-2-(5-fluoro-1H-pyrrolo[2,3-b]pyridin-3-yl)pyrimidin-4-ylamino)cyclohexylamino)oxazole-4-carboxylic acid]
IC50 [1, 8]: < 5 µM
EC50 [2, 9]: < 5 µM

O=C(O[C@H]1CCC[C@@H](Nc2nc(-c3c[nH]c4ncc(F)cc34)ncc2F)C1)N1CC[C@H](F)C1 [Compound 1151, (S)-(1S,3R)-3-((5-fluoro-2-(5-fluoro-1H-pyrrolo[2,3-b]pyridin-3-yl)-pyrimidin-4-yl)amino)cyclohexyl 3-fluoropyrrolidine-1-carboxylate]
IC50 [1, 8]: < 5 µM
EC50 [2, 9]: < 5 µM

O=C(O)[C@H]1C2CCC(CC2)[C@@H]1Nc1nc(-c2c[nH]c3ncc(Cl)cc23)ncc1F [Compound 1184, (2S,3S)-3-((2-(5-chloro-1H-pyrrolo[2,3-b]pyridin-3-yl)-5-fluoropyrimidin-4-yl)amino)bicyclo[2.2.2]octane-2-carboxylic acid]
IC50 [1, 8]: < 5 µM
EC50 [2, 9]: < 5 µM

C[C@H]1C[C@@H](NC(=O)N2CC[C@H](F)C2)C[C@@H](Nc2nc(-c3c[nH]c4ncc(F)cc34)ncc2F)C1 [compound 1067]
IC50 [1, 8]: < 5 µM
EC50 [2, 9]: < 5 µM

(1S,3R)—N1-(5-fluoro-2-(5-fluoro-1H-pyrrolo[2,3-b]pyridin-3-yl)pyrimidin-4-yl)-N3-(pyrazin-2-yl)cyclohexane-1,3-diamine [Compound 985]
IC50 ([1]; mean all): < 5 µM
EC50 ([2]; mean all): < 5 µM

(R)-methyl 2-(3-((2-(5-chloro-1H-pyrrolo[2,3-b]pyridin-3-yl)-5-fluoropyrimidin-4-ylamino)methyl)piperidine-1-carboxamido)ethanoate [Compound 125]
pIC50 ([1]; read-out: IC50 (mean all)): > 5.30
pEC50 ([2]; read-out: EC50 (mean all)): > 5.30
